Results taken from patent publication US6403647B1, “Pulsed administration of compositions for the treatment of blood disorders” (priority 1996, dated 2002).
Entries after “also recorded” stand apart in the source; their conditions may differ.

Assays:
[1] = Weekly versus pulse butyrate therapy in sickle cell and beta thalassemia patients; format: in vivo, human; design: F-retics On / F-cells On: unit not given here
Experimental: To determine if arginine butyrate can be used for therapeutic benefit, two low-dose regimens of butyrate were studied. Treatment were given intermittently either weekly, or in a pulse fashion, at 2-3 week intervals. […]
Patients were treated by pulse therapy for 4-18 months with arginine butyrate. […] It is preferred to avoid prolonged treatment with high doses of butyrate, which cause cellular growth arrest in G1, and can enhance the accelerated apoptosis of beta thalassemia. Partial tolerance observed with long-term weekly therapy appears related to erythroid cell growth arrest and a decline in EPO levels as Hgb and Hct rise and depletion of available iron stores. Treatment with additional doses of iron supplements can overcome some of the anti-proliferative activities of butyrate in vitro. Time required on therapy has been only 25%-35% of the treatment days per month necessary for effective transfusion and iron chelation. This has improved the quality of life of some patients.
To determine if these potentially opposing actions can be balanced for therapeutic effect, two intermittent schedules of butyrate were compared in 21 treatment courses in 14 patients ages 3 to 55 years, with sickle cell disease or β thalassemia. An optimal dose was identified on an individual patient regimen and continued on a weekly basis in eleven patients. Providing 7 to 14 days without any drug exposure to facilitate proliferation of treated cells, an alternate week regimen or pulse therapy, was administered to twelve patients (see Tables V, VI and VI).
A series of ten patients with sickle cell anemia and β-thalassemia were treated with continuous therapy with arginine butyrate. In 3 out of 4, transfusion requirement was diminished. […] The mean peak in total HgB which was detectable in the ten patients over their baseline was 1.6 gm/dl.
Patients were next administered a pulse therapy regimen. Each session comprised eight to twelve hours of nightly infusions. […] Total increases in Hgb were sustained as high as 3.0 g/dl above baseline levels with a mean increase of 2.1 g/dl in 8 out of 12 patients (p<0.05, paired t-test, chi square).

[2] = Conventional versus pulse treatment of a sickle cell patient; format: in vivo, human
Experimental: Conventional treatment: A patient with sickle cell disease was tested with arginine butyrate at 750 mg/kg. Drug was administered by infusion for 10-16 hours per day and 5 days/week. […] After 150 days, total HbF declined to about 10%.
Pulse treatment: Treatment of the same sickle cell patient as above was changed from weekly to pulse administration of arginine butyrate about one year later (FIG. 5B). Arginine butyrate was administered by infusion at 500 to 750 mg/kg for 4 days for about 10-16 hours per day. After the 4 day regimen, drug was withheld for 10 days before treatment was repeated. This regimen was continued for about 5 months and percent total fetal hemoglobin increased to over 20%. This level was maintained until treatment was discontinued. Hemoglobin F levels above 20% are generally considered to be sufficient to eliminate symptoms associated with sickle cell disease.

[3] = pulse therapy, 4/6 severe thalassemia patients
[4] = weekly therapy, patient Hb SS, 24 weeks
[5] = weekly therapy, patient HbSS, 4 weeks
[6] = weekly therapy, patient frameshift 5, 5 weeks
[7] = weekly therapy, patient β-39,-39, 8 weeks
[8] = weekly therapy, patient βIVS I, 1-6, 40 weeks

Substance: arginine butyrate
- fetal hemoglobin levels ([1]; 4 days, infusions about 8 hours per day, followed by 7 days of no treatment): rise substantially
- patients with diminished transfusion requirement ([1]; continuous therapy): 3 out of 4
- mean peak in total HgB over baseline ([1]; continuous therapy, ten patients): 1.6 gm/dl
- patients responding hematologically ([1]; intermittent pulse therapy): 8/10
- transfusion-dependency ([1]; pulse regimen, thalassemia major): eliminated previous transfusion-dependency; also recorded: Transfusion-dependency was eliminated
- hematologic responses above baseline levels ([1]; pulse therapy): 2-5 gram/dl
- patients with fetal globin genes reactivated to a hematologically compensating degree ([1]; pulse therapy for 4-18 months): 8 out of 12
- total increases in Hgb above baseline, sustained ([1]; pulse therapy regimen): ≤ 3.0 g/dL
- mean increase in Hgb above baseline ([1]; pulse therapy regimen, 8 out of 12 patients): 2.1 g/dL
- increase in total Hb levels [1, 3]: 2-3 grams/dl
- total Hb level reached [1, 3]: > 9.0 gm/dl
- Hb F reached ([1]; pulse therapy, patient): 29%
- Increase in Total Hgb ([1]; pulse therapy, patient HbE/?, 15 weeks): 1.7 g/dL
- Non-∀/∀* On (non-α: α globin chain synthesis ratios) ([1]; pulse therapy, patient HbE/?, 15 weeks, Base 0.17): 0.25
- F-cells On ([1]; pulse therapy, patient HbE/?, 15 weeks, Base 79): 84
- Percent HbF On ([1]; pulse therapy, patient HbSS, 7 weeks, Base 0.5): 1.5%
- F-retics On ([1]; pulse therapy, patient HbSS, 7 weeks, Base 8): 9.3
- F-cells On ([1]; pulse therapy, patient HbSS, 7 weeks, Base 11): 8
- Percent HbF On ([1]; pulse therapy, patient HbSS, 9 weeks, Base 0.5): 1.0%
- F-retics On ([1]; pulse therapy, patient HbSS, 9 weeks, Base 0.7): 6.7
- F-cells On ([1]; pulse therapy, patient HbSS, 9 weeks, Base 15): 0.5
- Increase Total Hgb ([1]; pulse therapy, patient HbSS, 11 weeks): +1.0 g/dl
- Percent HbF On ([1]; pulse therapy, patient HbSS, 11 weeks, Base 3): 24%
- F-retics On ([1]; pulse therapy, patient HbSS, 11 weeks, Base 18): 25
- F-cells On ([1]; pulse therapy, patient HbSS, 11 weeks, Base 28): 58
- Increase Total Hgb ([1]; pulse therapy, patient HbSS, 15 weeks): +2.0 g/dl
- Percent HbF On ([1]; pulse therapy, patient HbSS, 15 weeks, Base 6.9): 22%
- F-retics On ([1]; pulse therapy, patient HbSS, 15 weeks, Base 12.6): 24
- F-cells On ([1]; pulse therapy, patient HbSS, 15 weeks, Base 23): 59
- Increase Total Hgb ([1]; pulse therapy, patient HbSS, 18 weeks): +2.0 g/dl
- Percent HbF On ([1]; pulse therapy, patient HbSS, 18 weeks, Base 8): 35%
- F-retics On ([1]; pulse therapy, patient HbSS, 18 weeks, Base 35): 46
- F-cells On ([1]; pulse therapy, patient HbSS, 18 weeks, Base 50): 65
- Increase Total Hgb ([1]; pulse therapy, patient HbSS, 28 weeks): +1.0 g/dl
- Percent HbF On ([1]; pulse therapy, patient HbSS, 28 weeks, Base 6): 29%
- F-retics On ([1]; pulse therapy, patient HbSS, 28 weeks, Base 18): 36
- F-cells On ([1]; pulse therapy, patient HbSS, 28 weeks, Base 42): 56
- Non-∀/∀* On (non-α: α globin chain synthesis ratios) ([1]; pulse therapy, patient frameshift-5, 24 weeks, Base 0.5): 0.75
- F-cells On ([1]; pulse therapy, patient frameshift-5, 24 weeks, Base 100): 100
- Increase in Total Hgb ([1]; pulse therapy, patient β-39-87, 68 weeks): 3.6 g/dL
- Non-∀/∀* On (non-α: α globin chain synthesis ratios) ([1]; pulse therapy, patient β-39-87, 68 weeks, Base 0.6): 1.1
- F-cells On ([1]; pulse therapy, patient β-39-87, 68 weeks, Base 29): 100
- Increase in Total Hgb ([1]; pulse therapy, patient β-39, 7 weeks): 3.0 g/dL
- Non-∀/∀* On (non-α: α globin chain synthesis ratios) ([1]; pulse therapy, patient β-39, 7 weeks, Base 0.4): 0.9
- F-cells On ([1]; pulse therapy, patient β-39, 7 weeks, Base 100): 100
- Increase in Total Hgb ([1]; pulse therapy, patient βIVS I-1, 4 weeks): 2.1 g/dL
- Non-∀/∀* On (non-α: α globin chain synthesis ratios) ([1]; pulse therapy, patient βIVS I-1, 4 weeks, Base 0.5): 0.9
- F-cells On ([1]; pulse therapy, patient βIVS I-1, 4 weeks, Base 100): 100
- Non-∀/∀* On (non-α: α globin chain synthesis ratios) ([1]; pulse therapy, patient βIVS II, 33 weeks, Base 0.5): 0.7
- F-cells On ([1]; pulse therapy, patient βIVS II, 33 weeks, Base 10): 16
- patients with desired hematologic responses ([1]; pulse therapy, sickle cell and beta thalassemia patients): 8 of 12
- adverse side effects ([1]; up to 17 months of home therapy and 350 weeks of patient treatment): No significant adverse side effects
- Hb F responses ([1]; weekly therapy): 4-10%
- patients with biochemical (Hb F) responses ([1]; weekly therapy): 8/10
- patients with biochemical increases in fetal globin expression ([1]; weekly therapy): 8/11
- rises in total hemoglobin, mean ([1]; weekly therapy): 1.6 gm/dl
- increases in total Hb above baseline levels ([1]; weekly therapy, in 6/10): 1-4 gram/dl
- Comments [1, 4]: response declined
- Increase in Total Hgb [1, 4]: +2.0 gm/dl
- F-retics On ([1]; weekly therapy, patient Hb SS, 24 weeks, Base 12.7): 35.3
- Comments ([1]; weekly therapy, patient HbE/?, 9 weeks): transfusions cont.
- F-retics On ([1]; weekly therapy, patient HbE/?, 9 weeks, Base 42): 52.7
- Comments ([1]; weekly therapy, patient HbS, β-39, 6 weeks): transfusions cont.
- F-retics On ([1]; weekly therapy, patient HbS, β-39, 6 weeks, Base 4): 20
- Comments [1, 5]: response declined
- Increase in Total Hgb [1, 5]: +1.0 gm/dl
- F-retics On ([1]; weekly therapy, patient HbSS, 4 weeks, Base 14): 30.7
- Comments [1, 6]: response declined
- Increase in Total Hgb [1, 6]: +1.0 gm/dl
- F-retics On ([1]; weekly therapy, patient frameshift 5, 5 weeks, Base 0.5): 1
- Comments ([1]; weekly therapy, patient β(-39-39), 8 weeks): AIHA, trans. cont.
- F-retics On ([1]; weekly therapy, patient β(-39-39), 8 weeks, Base 60): 77
- Comments [1, 7]: plateaued
- Increase in Total Hgb [1, 7]: 1.5 gm/dl
- F-retics On ([1]; weekly therapy, patient β-39,-39, 8 weeks, Base 76): 68
- Increase in Total Hgb ([1]; weekly therapy, patient β-39-87, 16 weeks): +2.3 gm/dl
- F-retics On ([1]; weekly therapy, patient β-39-87, 16 weeks, Base 64.7): 67.3
- Comments [1, 8]: response declined
- Increase in Total Hgb [1, 8]: +4.3 gm/dl
- F-retics On ([1]; weekly therapy, patient βIVS I, 1-6, 40 weeks, Base 56): 75
- Increase in Total Hgb ([1]; weekly therapy, patient βIVS II-745, 7 weeks): 3 gm/dl
- F-retics On ([1]; weekly therapy, patient βIVS II-745, 7 weeks, Base 4): 16
- rises in total hemoglobin, mean ([1]; weekly therapy, the 6 responsive patient (6/9 treated)): 2.4 gm/dl
- percent total HbF ([2]; conventional treatment, after 150 days): about 10%
- percent total HbF ([2]; conventional, 750 mg/kg infusion 10-16 hours per day, 5 days/week, from 3%): 15-18%
- percent total fetal hemoglobin ([2]; pulse, 500 to 750 mg/kg for 4 days, 10 days withheld, about 5 months): over 20%
